Results: patent US20190002480A1, “Silane-Containing Heterocyclic Compounds and Methods of Use Thereof for the Treatment of Viral Diseases” (Merck Sharp & Dohme Corp., priority 2015, published 2019)
Where two headings read alike, the source gives them in different places.

Experiments:
HCV replicon GT1a_L31V = experiment: Cell-based HCV replicon assay, GT1a L31V; settings: Hepatitis C virus, 72 h, read-out: GT1a_L31V EC90
Method: (§1) To measure cell-based anti-HCV activity of compounds of the present invention, two complimentary assays were employed using various replicons. In the first assay (“Replicon Assay A”), replicon cells were seeded at 2000 cells/well in 384-well 384-well flat bottom tissue culture treated clear bottom plate (Corning 3707) in the presence of the test compound. Various concentrations of test compound, typically in 10 serial dilutions, were added to the assay mixture, with the starting concentration ranging from 333.3 nM to […]. The final concentration of DMSO was 0.5%. Fetal bovine serum was 5%, in the assay media. Cells were harvested on day 3 by removing media and washing the cells with a suitable wash buffer. The cells are lysed with the addition of 1× Qiagen lysis buffer (Cat #1062731). The replicon RNA level was measured using real time PCR (TaqMan® EZ RT-PCR, Applied Biosystems 403028) with the following primers and probes: […]
(§2) Cyclophilin RNA was used as endogenous control and was amplified in the same reaction as NS5B (multiplex PCR). The real-time RT-PCR reactions were run on ABI PRISM 7900HT Sequence Detection System using the following program: 50° C. for 2 minutes, 60° C. for 30 minutes, 95° C. for 5 minutes, 40 cycles of 94 C for 20 sec, 55 C for 1 minutes.
(§3) The amount of HCV replicon RNA per cell is quantified using a linear regression curve for a known nanogram (ng) amount of HCV replicon total RNA. This is established by plotting the Cycle Threshold values (Ct) from the Neo probe and primer set versus the log (ng) for each HCV replicon total RNA standard. The amount of HCV RNA for each replicon sample is calculated by taking the sample's Ct value, minus the line intercept, divided by the slope of the line. Similarly, the amount of Cyclophilin mRNA per cell is also quantified using a linear regression curve for a known nanogram (ng) amount of HCV replicon total RNA. Again, this is established by plotting the Cycle Threshold values (Ct) from the Cyclophilin probe and primer set versus the log (ng) for each HCV replicon total RNA standard.
(§4) In an alternate assay (“Replicon Assay B”), 1000 cells were seeded per well in a 384-well collagen coated black plate from Greiner bio-one (Cat #781946) in 5% FBS. Inhibitors of this invention were added at 24 h post-seeding, and the plates were incubated for 3 days. Cells were subsequently lysed with Qiagen lysis buffer (Cat #1062731) to extract the RNA. HCV replicon RNA level was measured by real-time PCR using the RNA-to-CT kit from Applied Biosystem (Cat #4392656) and genotype-specific primers and probes. The amplicon was located within NS5B. The sequence of the PCR primers are as follows: 5B.2F, ATGGACAGGCGCCCTGA (SEQ. ID NO. 1); 5B.2R, […] (SEQ. ID NO. 2); the probe sequence was FAM-labeled CACGCCATGCGCTGCGG (SEQ. ID NO. 3). To detect genotype 1A the primer 1A F, TGCGGAACCGGTGAGTACA and 1A R, […] were used; the probe sequence was FAM-[…].
(§5) The real-time RT-PCR reactions were run on ABI PRISM 7900HT or Viia7 Sequence Detection System using the following program: 48° C. for 30 minutes, 95 C for 10 minutes, 40 cycles of 95 C for 15 sec, 60 C for 1 minutes. The 50% effective concentration (EC50) was the drug concentration necessary to achieve an increase in the cycle threshold (CT) of 1 over the projected baseline CT. The EC90 was the drug concentration necessary to achieve an increase in CT of 3.2 over the projected baseline CT.

HCV replicon GT4 = experiment: Cell-based HCV replicon assay, GT4; settings: Hepatitis C virus, GT4, 72 h; replicon RNA level by real-time PCR, 3 days
Method: as §1, §2, §3, §4, §5

HCV replicon GT2a = experiment: Cell-based HCV replicon assay, GT2a; settings: Hepatitis C virus, 72 h, read-out: GT2a EC90
Method: as §1, §2, §3, §4, §5

HCV replicon GT1b_WT = experiment: Cell-based HCV replicon assay, GT1b WT; settings: Hepatitis C virus, 72 h, read-out: GT1b_WT EC90
Method: as §1, §2, §3, §4, §5

HCV replicon GT1a_Y93H = experiment: Cell-based HCV replicon assay, GT1a Y93H; settings: Hepatitis C virus, 72 h, read-out: GT1a_Y93H EC90
Method: as §1, §2, §3, §4, §5

HCV replicon GT6 = experiment: Cell-based HCV replicon assay, GT6; settings: Hepatitis C virus, GT6, 72 h; replicon RNA level by real-time PCR, 3 days
Method: as §1, §2, §3, §4, §5

HCV replicon GT2b_31M = experiment: Cell-based HCV replicon assay, GT2b 31M; settings: Hepatitis C virus, 72 h, read-out: GT2b_31M EC90
Method: as §1, §2, §3, §4, §5

HCV replicon GT1a_Q30R = experiment: Cell-based HCV replicon assay, GT1a Q30R; settings: Hepatitis C virus, 72 h, read-out: GT1a_Q30R EC90
Method: as §1, §2, §3, §4, §5

HCV replicon GT3a_Y93H = experiment: Cell-based HCV replicon assay, GT3a Y93H; settings: Hepatitis C virus, 72 h, read-out: GT3a_Y93H EC90
Method: as §1, §2, §3, §4, §5

HCV replicon GT5 = experiment: Cell-based HCV replicon assay, GT5; settings: Hepatitis C virus, GT5, 72 h; replicon RNA level by real-time PCR, 3 days
Method: as §1, §2, §3, §4, §5

HCV replicon GT3a_WT = experiment: Cell-based HCV replicon assay, GT3a WT; settings: Hepatitis C virus, 72 h; replicon RNA level by real-time PCR, 3 days
Method: as §1, §2, §3, §4, §5

HCV replicon GT1a_M28V = experiment: Cell-based HCV replicon assay, GT1a M28V; settings: Hepatitis C virus, 72 h, read-out: GT1a_M28V EC90
Method: as §1
(§6) The amount of HCV replicon RNA per cell is quantified using a linear regression curve for a known nanogram (ng) amount of HCV replicon total RNA. […] The amount of HCV RNA for each replicon sample is calculated by taking the sample's Ct value, minus the line intercept, divided by the slope of the line. Similarly, the amount of Cyclophilin mRNA per cell is also quantified using a linear regression curve for a known nanogram (ng) amount of HCV replicon total RNA. […]

HCV replicon Gt1a_WT = experiment: Cell-based HCV replicon assay, GT1a WT; settings: Hepatitis C virus, 72 h; replicon RNA level by real-time PCR, 3 days
Method: as §1, §6

[1] = replicon RNA level by real-time PCR, 3 days

Row | SMILES | EC90 (HCV replicon GT1a_L31V) [nM] | EC90 (HCV replicon GT4) [nM] | EC90 (HCV replicon GT2a) [nM] | EC90 (HCV replicon GT1b_WT) [nM] | EC90 (HCV replicon GT1a_Y93H) [nM] | EC90 (HCV replicon GT6) [nM] | EC90 (HCV replicon GT2b_31M) [nM] | EC90 (HCV replicon GT1a_Q30R) [nM] | EC90 (HCV replicon GT3a_Y93H) [nM] | EC90 (HCV replicon GT5) [nM] | EC90 (HCV replicon GT3a_WT) [nM] | EC90 (HCV replicon GT1a_M28V) [nM] | EC90 (HCV replicon GT2a; [1]) [nM] | EC90 (HCV replicon GT1b_WT; [1]) [nM] | EC90 (HCV replicon Gt1a_WT) [nM]
1 | COC(=O)NC(C(=O)N1CCC[C@H]1c1ncc(-c2ccc3c(c2)cc2n3[C@H](c3cnc(C4CC4)s3)Oc3cc(-c4cnc([C@@H]5C[Si](C)(C)CN5C(=O)[C@@H](NC(=O)OC)C5CCC(F)(F)CC5)[nH]4)cc(F)c3-2)[nH]1)C(C)C (some centres unmarked) [Compound 9] | 0.026 | 0.00137 | 0.00243 | 0.00108 | 0.29 | 0.0109 | 4.24 | 0.0247 | 322 | 0.009 | 2.24 | – | – | – | –
2 | COC(=O)N[C@H](C(=O)N1CCC[C@H]1c1ncc(-c2cc(F)c3c(c2)O[C@@H](c2ccc(C4CC4)s2)n2c-3cc3cc(-c4cnc([C@@H]5C[Si](C)(C)CN5C(=O)[C@@H](NC(=O)OC)C(C)C)[nH]4)ccc32)[nH]1)C(C)C [Compound 13] | 0.0756 | 0.0015 | 0.00338 | 0.00118 | 0.561 | 0.0108 | 0.933 | 0.0328 | 614 | 0.0061 | 0.469 | – | – | – | –
3 | COC(=O)NC(C(=O)N1C[Si](C)(C)C[C@H]1c1ncc(-c2ccc3c(c2)cc2n3[C@H](c3ccc(C4CC4)s3)Oc3cc(-c4cnc([C@@H]5CCCN5C(=O)[C@@H](NC(=O)OC)C(C)C)[nH]4)cc(F)c3-2)[nH]1)C1CCOCC1 (some centres unmarked) [Compound 14] | 0.0062 | 0.00111 | 0.0042 | 0.00131 | 0.02 | 0.0842 | 0.038 | 0.0027 | 175 | 0.013 | 0.018 | – | – | – | –
4 | COC(=O)N[C@H](C(=O)N1CCC[C@H]1c1ncc(-c2cc(F)c3c(c2)O[C@@H](c2ccc(C4CC4)s2)n2c-3cc3cc(-c4cnc([C@@H]5C[Si](C)(C)CN5C(=O)[C@@H](NC(=O)OC)[C@@H]5CCOC(C)(C)C5)[nH]4)ccc32)[nH]1)C(C)C [Compound 15] | 0.0075 | 0.00136 | 0.0021 | 0.00102 | 0.185 | 0.0144 | 0.314 | 0.0047 | 442 | 0.0065 | 0.173 | – | – | – | –
5 | COC(=O)NC(C(=O)N1C[Si](C)(C)C[C@H]1c1ncc(-c2ccc3c(c2)cc2n3[C@H](c3ccc(C4CC4)s3)Oc3cc(-c4cnc([C@@H]5CCCN5C(=O)[C@@H](NC(=O)OC)C(C)C)[nH]4)cc(F)c3-2)[nH]1)C1CCC(F)(F)CC1 (some centres unmarked) [Compound 16] | 0.0507 | 0.00183 | 0.00575 | 0.00184 | 0.972 | 0.0252 | 2.83 | 0.0285 | 3690 | 0.0173 | 1.68 | – | – | – | –
6 | COC(=O)N[C@H](C(=O)N1CCC[C@H]1c1ncc(-c2cc(F)c3c(c2)O[C@@H](c2ccc(C4CC4)s2)n2c-3cc3cc(-c4cnc([C@@H]5C[Si](C)(C)CN5C(=O)[C@H](N)c5ccccc5)[nH]4)ccc32)[nH]1)C(C)C [Compound 17] | 1.76 | 0.0124 | – | – | 6.18 | 0.105 | 5.33 | 0.896 | 765 | 0.0527 | 3.28 | 0.00192 | 0.0582 | 0.00141 | 0.00142
